Laboratory results taken from patent US9993494B2, “Compositions and methods for treating fibrotic disease” (eFFECTOR Therapeutics, Inc., priority 2014, dated 2018).

System: normal human lung fibroblasts
Assay: Ribosomal profiling: translational efficiency in TGFβ-treated fibroblasts
Format: cell-based
Conditions: TGFβ-treated fibroblasts
Experimental: Ribosomal profiling allows for measurement of changes in transcription and translation on a genome-wide basis accompanying TGFβ-dependent transformation of fibroblasts to myofibroblasts. Ribosomal profiles of the TGFβ-treated fibroblasts from Example 1 (about 6×10^6 cells/10 cm plate) were prepared and analyzed for changes in translational efficiencies with respect to potential disease-associated cellular changes accompanying this TGFβ-induced transformation.
Briefly, cells were washed with cold PBS supplemented with cycloheximide and lysed with 1× mammalian cell lysis buffer for 10 minutes on ice. Lysates were clarified by centrifugation for 10 minutes at 14,000 rpm and supernatants were collected. Cell lysates were processed to generate ribosomal protected fragments and total mRNA according to the instructions included with the ARTseq Ribosome Profiling Kit (Illumina, San Diego, Calif.). Sequencing of total RNA (RNA) and of ribosome-protected fragments of RNA (RPF) was carried out using RNA-Seq methodology according to the manufacturer's instructions (Illumina). To analyze the ribosomal profiles, RNA-Seq reads were processed with tools from the FASTX-Toolkit (fastq_quality_trimmer, fastx_clipper and fastx_trimmer). Unprocessed and processed reads were evaluated for a variety of quality measures using FastQC, and processed reads were mapped to the human genome using TopHat (see, e.g., Trapnell et al., Bioinformatics 25:1105, 2009). Gene-by-gene assessment of the number of fragments strictly and uniquely mapping to the coding region of each gene was conducted using HTSeq-count, a component of the HTSeq package. […] Genes with low counts in either RPF or RNA were excluded from differential analyses. Pathway and network analyses of differential data were conducted using Ingenuity Pathway Analysis (IPA).

COC(=O)[C@H]1[C@@H](O)[C@@]2(O)c3c(OC)cc(O[C@@H]4O[C@@H]([C@H](O)CO)CO[C@H]4OC)cc3O[C@@]2(c2ccc(OC)cc2)[C@@H]1c1ccccc1 [Silvestrol]
effect in renormalizing the translational profile of the gene (gene RPS6KA5 (ENSG00000100784)): + (+ = 0.9 to 1.5)
effect in renormalizing the translational profile of the gene (gene RPS7 (ENSG00000171863)): − (− = <0.9)
effect in renormalizing the translational profile of the gene (gene RPS8 (ENSG00000142937)): − (− = <0.9)
effect in renormalizing the translational profile of the gene (gene RPS9 (ENSG00000170889)): − (− = <0.9)
effect in renormalizing the translational profile of the gene (gene RPS10 (ENSG00000124614)): − (− = <0.9)
effect in renormalizing the translational profile of the gene (gene RPS11 (ENSG00000142534)): − (− = <0.9)
effect in renormalizing the translational profile of the gene (gene RPS12 (ENSG00000112306)): − (− = <0.9)
effect in renormalizing the translational profile of the gene (gene RPS13 (ENSG00000110700)): − (− = <0.9)
effect in renormalizing the translational profile of the gene (gene RPS14 (ENSG00000164587)): − (− = <0.9)
effect in renormalizing the translational profile of the gene (gene RPS15 (ENSG00000115268)): − (− = <0.9)
effect in renormalizing the translational profile of the gene (gene RPS15A (ENSG00000134419)): − (− = <0.9)
effect in renormalizing the translational profile of the gene (gene RPS16 (ENSG00000105193)): − (− = <0.9)
effect in renormalizing the translational profile of the gene (gene RPS18 (ENSG00000231500)): − (− = <0.9)
effect in renormalizing the translational profile of the gene (gene RPS19 (ENSG00000105372)): − (− = <0.9)
effect in renormalizing the translational profile of the gene (gene RPS20 (ENSG00000008988)): − (− = <0.9)
effect in renormalizing the translational profile of the gene (gene RPS21 (ENSG00000171858)): − (− = <0.9)
effect in renormalizing the translational profile of the gene (gene RPS23 (ENSG00000186468)): − (− = <0.9)
effect in renormalizing the translational profile of the gene (gene RPS24 (ENSG00000138326)): − (− = <0.9)
effect in renormalizing the translational profile of the gene (gene RPS25 (ENSG00000118181)): − (− = <0.9)
effect in renormalizing the translational profile of the gene (gene RPS26 (ENSG00000197728)): − (− = <0.9)
effect in renormalizing the translational profile of the gene (gene RPS27 (ENSG00000177954)): − (− = <0.9)
effect in renormalizing the translational profile of the gene (gene RPS27A (ENSG00000143947)): − (− = <0.9)
effect in renormalizing the translational profile of the gene (gene RPS28 (ENSG00000233927)): − (− = <0.9)
effect in renormalizing the translational profile of the gene (gene RPS29 (ENSG00000213741)): − (− = <0.9)
effect in renormalizing the translational profile of the gene (gene RPSA (ENSG00000168028)): − (− = <0.9)
effect in renormalizing the translational profile of the gene (gene RTN2 (ENSG00000125744)): − (− = <0.9)
effect in renormalizing the translational profile of the gene (gene SEMA3A (ENSG00000075213)): − (− = <0.9)
effect in renormalizing the translational profile of the gene (gene SGIP1 (ENSG00000118473)): + (+ = 0.9 to 1.5)
effect in renormalizing the translational profile of the gene (gene SHC3 (ENSG00000148082)): − (− = <0.9)
effect in renormalizing the translational profile of the gene (gene SLC2A12 (ENSG00000146411)): ++ (++ = 1.5 to 2.0)
effect in renormalizing the translational profile of the gene (gene SLC7A7 (ENSG00000155465)): − (− = <0.9)
effect in renormalizing the translational profile of the gene (gene SLC15A3 (ENSG00000110446)): − (− = <0.9)
effect in renormalizing the translational profile of the gene (gene SLC25A6 (ENSG00000169100)): − (− = <0.9)
effect in renormalizing the translational profile of the gene (gene SLC40A1 (ENSG00000138449)): − (− = <0.9)
effect in renormalizing the translational profile of the gene (gene SMO (ENSG00000128602)): − (− = <0.9)
effect in renormalizing the translational profile of the gene (gene SNRPA (ENSG00000077312)): + (+ = 0.9 to 1.5)
effect in renormalizing the translational profile of the gene (gene SOX5 (ENSG00000134532)): − (− = <0.9)
effect in renormalizing the translational profile of the gene (gene SOX6 (ENSG00000110693)): − (− = <0.9)
effect in renormalizing the translational profile of the gene (gene SPATA6 (ENSG00000132122)): − (− = <0.9)
effect in renormalizing the translational profile of the gene (gene STAMBPL1 (ENSG00000138134)): + (+ = 0.9 to 1.5)
effect in renormalizing the translational profile of the gene (gene STS (ENSG00000101846)): − (− = <0.9)
effect in renormalizing the translational profile of the gene (gene SYNE2 (ENSG00000054654)): − (− = <0.9)
effect in renormalizing the translational profile of the gene (gene TAF1D (ENSG00000166012)): − (− = <0.9)
effect in renormalizing the translational profile of the gene (gene TDG (ENSG00000139372)): − (− = <0.9)
effect in renormalizing the translational profile of the gene (gene TEN1 (ENSG00000257949)): + (+ = 0.9 to 1.5)
effect in renormalizing the translational profile of the gene (gene TET2 (ENSG00000168769)): − (− = <0.9)
effect in renormalizing the translational profile of the gene (gene TET3 (ENSG00000187605)): − (− = <0.9)
effect in renormalizing the translational profile of the gene (gene TGFBI (ENSG00000120708)): − (− = <0.9)
effect in renormalizing the translational profile of the gene (gene THBS3 (ENSG00000169231)): + (+ = 0.9 to 1.5)
effect in renormalizing the translational profile of the gene (gene THG1L (ENSG00000113272)): − (− = <0.9)
effect in renormalizing the translational profile of the gene (gene TIMM9 (ENSG00000100575)): − (− = <0.9)
effect in renormalizing the translational profile of the gene (gene TKT (ENSG00000163931)): − (− = <0.9)
effect in renormalizing the translational profile of the gene (gene TMTC1 (ENSG00000133687)): +++ (+++ = >2.0)
effect in renormalizing the translational profile of the gene (gene TOMM7 (ENSG00000196683)): − (− = <0.9)
effect in renormalizing the translational profile of the gene (gene TOP2A (ENSG00000131747)): +++ (+++ = >2.0)
effect in renormalizing the translational profile of the gene (gene TPGS1 (ENSG00000141933)): − (− = <0.9)
effect in renormalizing the translational profile of the gene (gene TPM2 (ENSG00000198467)): − (− = <0.9)
effect in renormalizing the translational profile of the gene (gene TPT1 (ENSG00000133112)): − (− = <0.9)
effect in renormalizing the translational profile of the gene (gene TRERF1 (ENSG00000124496)): + (+ = 0.9 to 1.5)
effect in renormalizing the translational profile of the gene (gene UBA52 (ENSG00000221983)): − (− = <0.9)
effect in renormalizing the translational profile of the gene (gene UQCRB (ENSG00000156467)): − (− = <0.9)
effect in renormalizing the translational profile of the gene (gene UTRN (ENSG00000152818)): − (− = <0.9)
effect in renormalizing the translational profile of the gene (gene VIM (ENSG00000026025)): − (− = <0.9)
effect in renormalizing the translational profile of the gene (gene ZNF581 (ENSG00000171425)): − (− = <0.9)
effect in renormalizing the translational profile of the gene (gene ZNF608 (ENSG00000168916)): − (− = <0.9)
